Consider 61 compounds from US11292787B2, “Five-membered-fused-six-membered aza-aromatic ring compound, preparation method thereof, pharmaceutical composition and application thereof” (XIAMEN UNIVERSITY, priority 2017, dated 2022).

The structures appear in SMILES notation.

T1 sequence (P01116 1-188 isoform P01116-2 G12V): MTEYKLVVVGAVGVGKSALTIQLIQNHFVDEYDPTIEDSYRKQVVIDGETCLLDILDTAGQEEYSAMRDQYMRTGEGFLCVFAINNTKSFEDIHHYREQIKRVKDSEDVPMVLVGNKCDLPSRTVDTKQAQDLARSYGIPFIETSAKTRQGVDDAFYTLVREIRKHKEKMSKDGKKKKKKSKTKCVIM

The test has as its target T1, K-Ras protein (Homo sapiens, UniProt P01116, G12V).
T1 construct: in SW620 cells, compound I-a-1 can effectively enhance the degradation of endogenous K-RAS-G12V proteins; endogenous in cells; host or cells: SW-620
The test is described as follows: K-Ras protein degradation rate by Western blot in SW-620 cells. In kind it is cell-based. Particulars: 10 μM, SW-620 cells, 24 h, Western blot, relative to DMSO control; read-out: Degradation rate of compounds at 10 μM on Ras protein (%). As for the experimental part:
Inhibitory activity of compounds on K-RAS was evaluated by the degradation rate of protein level of administration group relative to control group (Cell Rep 2014, 7, 871-882).
The specific method was as follows:
1. Cell plating: SW-620 cells in logarithmic growth phase were inoculated into a 24-well plate at 2×10^4/well, and cultured in a 37° C., 5% CO2 incubator.
2. Administering drug to cells: after 24 h of culture, various drug stocks […]; the original solution in the 24-well plate was discarded, to which was added the obtained drug solution, with the DMSO group as the blank control; after the drug solution was added, the 24-well plate was transferred to the 37° C. CO2 incubator to continue the culture.
3. Detection of K-Ras protein level: after 24 h of administration and culture, the liquid in the well was discarded, the cells were routinely collected, and rinsed twice with 1×PBS, a cell lysate was added to extract the total cellular protein, and the protein concentration was determined by BCA method. 30 μg of the protein sample was taken for SDS-polyacrylamide gel electrophoretic transmembrane, the membrane was blocked sequentially, incubated with K-Ras antibody (1:1000) and internal reference antibody β-actin (1:2000) respectively overnight at 4° C., rinsed with TBST for 5 min×3 times, then incubated with the addition of the corresponding horseradish peroxidase-labeled secondary antibody (1:5000) for 1-2 h, and rinsed with TBST for 5 min×3 times. Finally, chemiluminescence image was acquired using Image Lab software.
4. Calculation of single-point K-Ras protein degradation rate: quantitative and calibration analysis of K-Ras and β-actin were conducted using Image-Lab software, and then the intracellular K-Ras degradation rate was calculated according to the following formula: single-point K-Ras protein degradation rate (%)=(control group−administration group)/control group×100%. The drug with degradation rate ≥20% was selected for soft agar experiment.
For orientation: A western blot detects proteins with antibodies after separation by electrophoresis.
As for `O=C(NCc1c(F)cccc1Cl)c1ccc(-c2cnc3ccccn23)s1` [IX-f-1], the percent K-Ras protein degradation (single point) at 10 µM was determined as 50%.

On to `COc1ccccc1CNC(=O)c1c[nH]c(-c2n[nH]c3ncccc23)c1` [III-f-54], for which the percent K-Ras protein degradation (single point) at 10 µM was 50%.

Turning to `O=C(NCc1cccc(Cl)c1)c1c[nH]c(-c2n[nH]c3ncccc23)c1` [III-f-46], the percent K-Ras protein degradation (single point) at 10 µM was determined as 60%.

In the case of `COc1ccc(CNC(=O)c2c[nH]c(-c3n[nH]c4ncccc34)c2)cc1` [III-f-55], the percent K-Ras protein degradation (single point) at 10 µM was determined as 25%.

With `Cc1cccc(CNC(=O)c2c[nH]c(-c3n[nH]c4ncccc34)c2)c1` [III-f-50], the percent K-Ras protein degradation (single point) at 10 µM came out at 40%.

As for `CC(C)(C)n1nc(-c2cc(C(=O)Nc3ccccc3)cs2)c2c(N)ncnc21` [VI-a-2], the percent K-Ras protein degradation (single point) at 10 µM amounted to 30%.

Take `O=C(NCc1cccc(OC(F)(F)F)c1)c1c[nH]c(-c2n[nH]c3ncccc23)c1` [III-f-38]: the percent K-Ras protein degradation (single point) at 10 µM was determined as 50%.

For the compound `O=C(NCc1ccccc1F)c1c[nH]c(-c2n[nH]c3ncccc23)c1` [III-f-45], the percent K-Ras protein degradation (single point) at 10 µM amounted to 50%.

Consider `O=C(Nc1ccccc1)c1coc(-c2c[nH]c3ncccc23)c1` [II-b-2], for which the percent K-Ras protein degradation (single point) at 10 µM was found to be 50%.

Regarding `O=S(=O)(NCc1c(F)cccc1Cl)c1c[nH]c(-c2n[nH]c3ncccc23)c1` [III-g-4], the percent K-Ras protein degradation (single point) at 10 µM worked out at 12%.

Regarding `O=C(Nc1cccc(F)c1)c1c[nH]c(-c2n[nH]c3ncccc23)c1` [III-f-13], the percent K-Ras protein degradation (single point) at 10 µM stood at 16%.

In the case of `O=C(Nc1ccccc1)c1coc(-c2cnc3ccccn23)c1` [IX-c-2], the percent K-Ras protein degradation (single point) at 10 µM turned out to be 40%.

Take `O=S(=O)(Cc1c(Cl)cccc1Cl)c1c[nH]c(-c2n[nH]c3ncccc23)c1` [III-h-3]: the percent K-Ras protein degradation (single point) at 10 µM is 18%.

Regarding `CC(C)(C)n1nc(-c2cccc(C(=O)Nc3ccccc3)c2)c2c(N)ncnc21` [VI-d-2], the percent K-Ras protein degradation (single point) at 10 µM stood at 30%.

As for `O=C(NCc1cc(C(F)(F)F)ccc1F)c1csc(-c2cnc3cccnn23)c1` [VIII-a-3], the percent K-Ras protein degradation (single point) at 10 µM worked out at 50%.

As to `O=C(Nc1ccccc1)c1ccc(-c2cnc3cnccn23)cc1` [VII-e-2], the percent K-Ras protein degradation (single point) at 10 µM was determined as 20%.

As for `O=C(NCc1cccc(F)c1)c1c[nH]c(-c2n[nH]c3ncccc23)c1` [III-f-44], the percent K-Ras protein degradation (single point) at 10 µM turned out to be 70%.

Take `O=C(Nc1cccc(C(F)(F)F)c1)c1c[nH]c(-c2n[nH]c3ncccc23)c1` [III-f-11]: the percent K-Ras protein degradation (single point) at 10 µM stood at 13%.

With `O=C(NCc1cccc(C(F)(F)F)c1F)c1c[nH]c(-c2n[nH]c3ncccc23)c1` [III-f-60], the percent K-Ras protein degradation (single point) at 10 µM worked out at 65%.

For `O=C(NCc1ccc(Cl)cc1)c1c[nH]c(-c2n[nH]c3ncccc23)c1` [III-f-6], the percent K-Ras protein degradation (single point) at 10 µM was 15%.

Turning to `O=C(NCc1c(F)cccc1Cl)c1ccc(-c2c[nH]c3ccccc23)s1` [IV-f-1], the percent K-Ras protein degradation (single point) at 10 µM was 10%.

`O=C(NCc1c(F)cccc1Cl)c1ccc(-c2n[nH]c3ccccc23)s1` [I-f-1]: the percent K-Ras protein degradation (single point) at 10 µM was determined as 20%.

Regarding `O=C(Nc1ccccc1)c1c[nH]c(-c2n[nH]c3ccccc23)c1` [I-b-2], the percent K-Ras protein degradation (single point) at 10 µM amounted to 56%.

Consider `Cc1ccc(NC(=O)c2c[nH]c(-c3n[nH]c4ncccc34)c2)cc1` [III-f-16], for which the percent K-Ras protein degradation (single point) at 10 µM came to 15%.

Take `O=C(NCc1c(F)cccc1Cl)c1c[nH]c(-c2cnc3cnccn23)c1` [VII-b-1]: the percent K-Ras protein degradation (single point) at 10 µM is 20%.

As to `O=C(NCc1cc(C(F)(F)F)ccc1F)c1csc(-c2n[nH]c3ncccc23)c1` [III-a-4], the percent K-Ras protein degradation (single point) at 10 µM amounted to 60%.

For the compound `O=C(NCc1ccc(F)c(C(F)(F)F)c1)c1c[nH]c(-c2n[nH]c3ncccc23)c1` [III-f-57], the percent K-Ras protein degradation (single point) at 10 µM was 70%.

As for `O=C(NC1CCCCC1)c1ccc(-c2cnc3cnccn23)s1` [VII-f-3], the percent K-Ras protein degradation (single point) at 10 µM worked out at 20%.

As to `O=C(NC1CCCCC1)c1c[nH]c(-c2cnc3cccnn23)c1` [VIII-b-3], the percent K-Ras protein degradation (single point) at 10 µM was 2%.

In the case of `O=C(NCc1cc(C(F)(F)F)ccc1F)c1csc(-c2cnc3cnccn23)c1` [VII-a-3], the percent K-Ras protein degradation (single point) at 10 µM worked out at 30%.

For the compound `O=C(NCc1cc(C(F)(F)F)ccc1F)c1c[nH]c(-c2n[nH]c3ncccc23)c1` [III-f-62], the percent K-Ras protein degradation (single point) at 10 µM was found to be 70%.

Take `O=C(NCc1c(F)cccc1Cl)c1ccc(-c2cnc3ccccn23)cc1` [IX-e-1]: the percent K-Ras protein degradation (single point) at 10 µM came to 40%.

Consider `N#Cc1cccc(CNC(=O)c2c[nH]c(-c3n[nH]c4ncccc34)c2)c1` [III-f-32], for which the percent K-Ras protein degradation (single point) at 10 µM was determined as 60%.

Take `O=C(NCc1cccc([N+](=O)[O-])c1)c1c[nH]c(-c2n[nH]c3ncccc23)c1` [III-f-48]: the percent K-Ras protein degradation (single point) at 10 µM was determined as 60%.

As for `O=C(NCc1c(F)cccc1Cl)c1ccc(-c2c[nH]c3ncccc23)s1` [II-e-1], the percent K-Ras protein degradation (single point) at 10 µM was 15%.

For `O=C(Nc1c(F)cccc1Cl)c1cccc(-c2n[nH]c3ncccc23)c1` [III-c-3], the percent K-Ras protein degradation (single point) at 10 µM was 16%.

On to `O=C(NCc1c(F)cccc1Cl)c1coc(-c2nnc3ccccn23)c1` [X-c-1], for which the percent K-Ras protein degradation (single point) at 10 µM is 10%.

As for `O=C(Nc1ccccc1)c1coc(-c2c[nH]c3ccccc23)c1` [IV-c-2], the percent K-Ras protein degradation (single point) at 10 µM was found to be 50%.

In the case of `O=C(NCc1cccc(C(F)(F)F)c1)c1csc(-c2n[nH]c3ncccc23)c1` [III-a-3], the percent K-Ras protein degradation (single point) at 10 µM amounted to 60%.

`O=C(NCc1ccccc1OC(F)(F)F)c1c[nH]c(-c2n[nH]c3ncccc23)c1` [III-f-39]: the percent K-Ras protein degradation (single point) at 10 µM was determined as 60%.

Take `O=C(NCc1ccc(Cl)c(Cl)c1)c1c[nH]c(-c2n[nH]c3ncccc23)c1` [III-f-4]: the percent K-Ras protein degradation (single point) at 10 µM was 19%.

For the compound `O=C(NCc1ccc(OC(F)(F)F)cc1)c1c[nH]c(-c2n[nH]c3ncccc23)c1` [III-f-40], the percent K-Ras protein degradation (single point) at 10 µM amounted to 30%.

`O=C(NCc1c(F)cccc1Cl)c1ccc(-c2nnc3ccccn23)s1` [X-f-1]: the percent K-Ras protein degradation (single point) at 10 µM was determined as 20%.

`O=C(Nc1ccccc1)c1ccc(-c2cnc3ccccn23)cc1` [IX-e-2]: the percent K-Ras protein degradation (single point) at 10 µM is 50%.

In the case of `O=C(Nc1ccccc1)c1ccc(-c2n[nH]c3ccccc23)cc1` [I-e-2], the percent K-Ras protein degradation (single point) at 10 µM is 12%.

Consider `O=C(NCc1ccccc1Br)c1c[nH]c(-c2n[nH]c3ncccc23)c1` [III-f-42], for which the percent K-Ras protein degradation (single point) at 10 µM amounted to 70%.

As to `O=C(Nc1ccccc1)c1ccc(-c2cnc3cnccn23)s1` [VII-f-2], the percent K-Ras protein degradation (single point) at 10 µM is 30%.

`O=C(NC1CCCCC1)c1c[nH]c(-c2n[nH]c3ncccc23)c1` [III-f-27]: the percent K-Ras protein degradation (single point) at 10 µM came out at 14%.

Consider `O=C(NCc1cccc(Br)c1)c1c[nH]c(-c2n[nH]c3ncccc23)c1` [III-f-41], for which the percent K-Ras protein degradation (single point) at 10 µM was 60%.

With `O=C(NCc1c(F)cccc1Cl)c1c[nH]c(-c2cnc3cccnn23)c1` [VIII-b-1], the percent K-Ras protein degradation (single point) at 10 µM is 20%.

Consider `O=C(NCc1cc(C(F)(F)F)ccc1F)c1csc(-c2n[nH]c3ccccc23)c1` [I-a-9], for which the percent K-Ras protein degradation (single point) at 10 µM was 30%.

In the case of `O=C(NCc1c(F)cccc1Cl)c1ccc(-c2c[nH]c3ccccc23)cc1` [IV-e-1], the percent K-Ras protein degradation (single point) at 10 µM is 30%.

Regarding `O=C(NCc1cccc(C(F)(F)F)c1)c1csc(-c2cnc3cnccn23)c1` [VII-a-2], the percent K-Ras protein degradation (single point) at 10 µM stood at 60%.

`O=C(NCc1ccccn1)c1c[nH]c(-c2n[nH]c3ncccc23)c1` [III-f-37]: the percent K-Ras protein degradation (single point) at 10 µM amounted to 35%.

`O=C(NCc1c(F)cccc1Cl)c1csc(-c2cnc3cnccn23)c1` [VII-a-1]: the percent K-Ras protein degradation (single point) at 10 µM was 5%.

In the case of `Nc1cccc(CNC(=O)c2c[nH]c(-c3n[nH]c4ncccc34)c2)c1` [III-f-49], the percent K-Ras protein degradation (single point) at 10 µM was 50%.

As for `O=C(Nc1ccccc1)c1ccc(-c2n[nH]c3ncccc23)s1` [III-e-2], the percent K-Ras protein degradation (single point) at 10 µM stood at 40%.

As to `O=C(Nc1ccccc1)c1csc(-c2n[nH]c3ccccc23)c1` [I-a-11], the percent K-Ras protein degradation (single point) at 10 µM came to 30%.

With `CC(C)Oc1ccc(NC(=O)c2c[nH]c(-c3n[nH]c4ncccc34)c2)cc1` [III-f-15], the percent K-Ras protein degradation (single point) at 10 µM amounted to 14%.

Consider `O=C(NCc1c(F)cccc1Cl)c1c[nH]c(-c2n[nH]c3ncccc23)c1` [III-f-1], for which the percent K-Ras protein degradation (single point) at 10 µM amounted to 60%.

Consider `O=C(NCc1c(F)cccc1Cl)c1ccc(-c2n[nH]c3ncccc23)s1` [III-e-1], for which the percent K-Ras protein degradation (single point) at 10 µM turned out to be 40%.
